Reference: ChEMBL document CHEMBL5050844 (2019)

Key:
[1] = Induction of anti-CD3/CD28 antibodies-stimulated human T cell activation at 10 uM assessed fold increase in IFN-gamma secretion measured by ELISA assay; assay type: functional, T cell line
[2] = Induction of anti-CD3/CD28 antibodies-stimulated human T cell activation at 0.3 uM assessed fold increase in CD25 expression measured by ELISA assay; assay type: functional, T cell line
[3] = Induction of anti-CD3/CD28 antibodies-stimulated human CD4+ T cell activation at 1.11 uM assessed fold increase in CD69 expression measured by flow cytometry analysis; assay type: functional, T cell line
[4] = Induction of activation of human CD56+ CD3- NK cells co-cultured with human K562 cells in 1:1 ratio and assessed as increase in IFN-gamma secretion at 10 uM measured by ELISA assay; assay type: functional, Natural killer cell
[5] = Induction of anti-CD3/CD28 antibodies-stimulated human CD4+ T cell activation at 1.11 uM assessed fold increase in cell proliferation measured by flow cytometry analysis; assay type: functional, T cell line
[6] = Induction of activation of human CD56+ CD3- NK cells co-cultured with human K562 cells in 1:1 ratio and assessed as increase in IFN-gamma secretion at 2.5 uM measured by ELISA assay; assay type: functional, Natural killer cell
[7] = Induction of anti-CD3/CD28 antibodies-stimulated human CD8+ T cell activation at 1.11 uM assessed fold increase in CD69 expression measured by flow cytometry analysis; assay type: functional, T cell line
[8] = Induction of anti-CD3/CD28 antibodies-stimulated human CD8+ T cell activation at 10 uM assessed fold increase in cell proliferation measured by flow cytometry analysis; assay type: functional, T cell line
[9] = Induction of anti-CD3 antibodies-stimulated human T cell activation at 8 uM assessed fold increase in CD25 expression measured by ELISA assay; assay type: functional, T cell line
[10] = Induction of anti-CD3 antibodies-stimulated human T cell activation at 1.11 uM assessed fold increase in TNF-alpha secretion measured by ELISA assay; assay type: functional, T cell line
[11] = Induction of anti-CD3 antibodies-stimulated human T cell activation at 1.11 uM assessed fold increase in GM-CSF secretion measured by ELISA assay; assay type: functional, T cell line
[12] = Induction of anti-CD3 antibodies-stimulated human CD8+ T cell activation at 10 uM assessed fold increase in cell proliferation measured by flow cytometry analysis; assay type: functional, T cell line
[13] = Induction of anti-CD3/CD28 antibodies-stimulated human T cell activation at 10 uM assessed fold increase in TNF-alpha secretion measured by ELISA assay; assay type: functional, T cell line
[14] = Induction of anti-CD3 antibodies-stimulated human T cell activation at 1 uM assessed fold increase in IL-2 secretion measured by ELISA assay; assay type: functional, T cell line
[15] = Induction of anti-CD3 antibodies-stimulated human CD8+ T cell activation at 1.11 uM assessed fold increase in CD69 expression measured by flow cytometry analysis; assay type: functional, T cell line
[16] = Induction of activation of human CD56+ CD3- NK cells co-cultured with human K562 cells in 1:1 ratio and assessed as increase in TNF-alpha secretion at 0.625 uM measured by ELISA assay; assay type: functional, Natural killer cell
[17] = Induction of anti-CD3 antibodies-stimulated human CD4+ T cell activation at 10 uM assessed fold increase in CD69 expression measured by flow cytometry analysis; assay type: functional, T cell line
B cell = assay: Induction of anti-IgM-stimulated human CD20+ B cell activation at 10 to 1000 uM assessed as increase in CD69 expression measured as mean fluorescence intensity AUC by flow cytometry analysis; assay type: functional, cell-based; details: dose 10-1000 µM
[18] = Induction of anti-CD3 antibodies-stimulated human exhausted T cell activation assessed fold increase in IL-2 secretion measured by ELISA assay; assay type: functional, T cell line
[19] = Induction of anti-CD3/CD28 antibodies-stimulated human anergic T cell activation at 10 uM assessed fold increase in IFN-gamma secretion measured by ELISA assay; assay type: functional, T cell line
[20] = Induction of anti-CD3 antibodies-stimulated human CD4+ T cell activation at 1.11 uM assessed fold increase in CD69 expression measured by flow cytometry analysis; assay type: functional, T cell line
[21] = Induction of anti-CD3/CD28 antibodies-stimulated human anergic T cell activation at 1.11 uM assessed fold increase in IFN-gamma secretion measured by ELISA assay; assay type: functional, T cell line
[22] = Induction of anti-CD3 antibodies-stimulated human exhausted CD8+ T cell activation assessed fold increase in CTLA4 expression measured by flow cytometry analysis; assay type: functional, T cell line
[23] = Induction of anti-CD3 antibodies-stimulated human T cell activation at 10 uM assessed fold increase in IFN-gamma secretion measured by ELISA assay; assay type: functional, T cell line
[24] = Induction of allogenic human T cell activation at 10 uM assessed fold increase in cell proliferation; assay type: functional, T cell line
[25] = Induction of activation of human CD56+ CD3- NK cells co-cultured with human K562 cells in 1:1 ratio and assessed as increase in TNF-alpha secretion at 2.5 uM measured by ELISA assay; assay type: functional, Natural killer cell
[26] = Induction of anti-CD3 antibodies-stimulated human T cell activation at 10 uM assessed fold increase in GM-CSF secretion measured by ELISA assay; assay type: functional, T cell line
[27] = Induction of anti-CD3 antibodies-stimulated human T cell activation at 8 uM assessed fold increase in IL-2 secretion measured by ELISA assay; assay type: functional, T cell line
[28] = Induction of anti-CD3 antibodies-stimulated human T cell activation at 1 uM assessed fold increase in CD25 expression measured by ELISA assay; assay type: functional, T cell line
[29] = Induction of activation of human CD56+ CD3- NK cells co-cultured with human K562 cells in 1:1 ratio and assessed as increase in TNF-alpha secretion at 10 uM measured by ELISA assay; assay type: functional, Natural killer cell
[30] = Induction of anti-CD3 antibodies-stimulated human CD8+ T cell activation at 10 uM assessed fold increase in CD69 expression measured by flow cytometry analysis; assay type: functional, T cell line
[31] = Induction of anti-CD3/CD28 antibodies-stimulated human CD8+ T cell activation at 1.11 uM assessed fold increase in cell proliferation measured by flow cytometry analysis; assay type: functional, T cell line
[32] = Induction of anti-CD3/CD28 antibodies-stimulated human T cell activation at 4 uM assessed fold increase in IL-2 secretion measured by ELISA assay; assay type: functional, T cell line
[33] = Induction of anti-CD3/CD28 antibodies-stimulated human anergic T cell activation at 0.37 uM assessed fold increase in IFN-gamma secretion measured by ELISA assay; assay type: functional, T cell line
[34] = Induction of anti-CD3 antibodies-stimulated human T cell activation at 1.11 uM assessed fold increase in IFN-gamma secretion measured by ELISA assay; assay type: functional, T cell line
[35] = Induction of anti-CD3/CD28 antibodies-stimulated human CD4+ T cell activation at 10 uM assessed fold increase in CD69 expression measured by flow cytometry analysis; assay type: functional, T cell line
[36] = Induction of anti-CD3/CD28 antibodies-stimulated human T cell activation at 1.11 uM assessed fold increase in IFN-gamma secretion measured by ELISA assay; assay type: functional, T cell line
[37] = Induction of anti-CD3/CD28 antibodies-stimulated human CD4+ T cell activation at 10 uM assessed fold increase in cell proliferation measured by flow cytometry analysis; assay type: functional, T cell line

Structure (SMILES)	fold change (FC) [2]	fold change (FC) [3]	fold change (FC) [4]	fold change (FC) [5]	fold change (FC) [6]	fold change (FC) [7]	fold change (FC) [8]	fold change (FC) [12]	fold change (FC) [14]	fold change (FC) [15]	fold change (FC) [16]	fold change (FC) [17]	fold change (FC) [18]	fold change (FC) [19]	fold change (FC) [20]	fold change (FC) [21]	fold change (FC) [22]	fold change (FC) [24]	fold change (FC) [25]	fold change (FC) [28]	also measured
C[C@H](Cc1nncn1C)c1cccc(NC(=O)c2cccc(CCO)n2)c1	1.01	<=1.2	2.01	<=2	1.01	<=1.2	2.01	<=2	0.051	<=1.2	<=1	1.201	<=2.5	2.51	<=1.2	<=2.5	<=1.4	<=2	1.01	<=0.6	fold change (FC) [1]: >4; fold change (FC) [9]: 0.801; fold change (FC) [10]: <=1.5; fold change (FC) [11]: <=1.5; fold change (FC) [13]: 1.51; AUC (B cell): 1.01; fold change (FC) [23]: <=2; fold change (FC) [26]: 1.51; fold change (FC) [27]: 0.151; fold change (FC) [29]: 1.01; fold change (FC) [30]: <=1.2; fold change (FC) [31]: <=2; fold change (FC) [32]: 2.51; fold change (FC) [33]: <=2.5; fold change (FC) [34]: <=2; fold change (FC) [35]: 1.201; fold change (FC) [36]: <=2; fold change (FC) [37]: 3.01
C[C@H](Sc1nncn1C)c1cccc(NC(=O)c2cc(C(=O)N3CC[C@H](O)C3)ccn2)c1	1.01	1.401	1.01	>4	<=1	1.201	>4	>4	<=0.05	1.401	<=1	>1.601	<=2.5	2.51	>1.601	<=2.5	<=1.4	<=2	<=1	0.601	fold change (FC) [1]: >4; fold change (FC) [9]: 0.801; fold change (FC) [10]: 1.51; fold change (FC) [11]: 2.01; fold change (FC) [13]: 2.01; AUC (B cell): < 0.5; fold change (FC) [23]: >4; fold change (FC) [26]: 2.01; fold change (FC) [27]: <=0.05; fold change (FC) [29]: <=1; fold change (FC) [30]: 1.401; fold change (FC) [31]: >4; fold change (FC) [32]: <=1; fold change (FC) [33]: <=2.5; fold change (FC) [34]: 3.01; fold change (FC) [35]: >1.601; fold change (FC) [36]: 2.01; fold change (FC) [37]: >4
COC1CN(Cc2cc3c(c(C(F)(F)F)c2)CN(c2cccc([C@@](C)(F)C(F)(F)c4nncn4C)c2)C3=O)C1	1.01	1.201	>=5	>4	>=5	1.201	>4	>4	0.151	1.201	1.01	>1.601	<=2.5	>4.01	1.401	2.51	>1.61	<=2	2.01	>=1.001	fold change (FC) [1]: 2.01; fold change (FC) [9]: >=1.001; fold change (FC) [10]: <=1.5; fold change (FC) [11]: 1.51; fold change (FC) [13]: 2.01; fold change (FC) [23]: 3.01; fold change (FC) [26]: 2.01; fold change (FC) [27]: >=0.201; fold change (FC) [29]: >=5; fold change (FC) [30]: 1.401; fold change (FC) [31]: 3.01; fold change (FC) [32]: >=7.5; fold change (FC) [33]: <=2.5; fold change (FC) [34]: 3.01; fold change (FC) [35]: 1.401; fold change (FC) [36]: <=2; fold change (FC) [37]: >4
Cn1cnnc1CC1(c2cccc(N3Cc4c(cc(CN5CCC6(CC6)C5)cc4C(F)(F)F)C3=O)c2)COC1	1.31	>1.601	>=5	>4	>=5	1.201	>4	>4	>=0.201	1.401	2.01	>1.601	2.51	>4.01	>1.601	2.51	>1.61	>3	>=5	>=1.001	fold change (FC) [1]: >4; fold change (FC) [10]: 2.01; fold change (FC) [11]: 2.01; fold change (FC) [13]: >4; AUC (B cell): > 1.51; fold change (FC) [23]: >4; fold change (FC) [26]: >4; fold change (FC) [29]: >=5; fold change (FC) [30]: 1.401; fold change (FC) [31]: >4; fold change (FC) [33]: <=2.5; fold change (FC) [34]: >4; fold change (FC) [35]: >1.601; fold change (FC) [36]: >4; fold change (FC) [37]: >4
C[C@@H](Sc1nncn1C)c1cccc(NC(=O)c2cccc(C(F)(F)F)n2)c1	1.01	1.201	1.01	3.01	1.01	<=1.2	>4	>4	0.051	1.201	1.01	1.401	<=2.5	<=2.5	>1.601	<=2.5	<=1.4	<=2	1.01	<=0.6	fold change (FC) [9]: 0.601; AUC (B cell): < 0.5; fold change (FC) [27]: 0.051; fold change (FC) [29]: 1.01; fold change (FC) [30]: 1.201; fold change (FC) [31]: 2.01; fold change (FC) [32]: 1.01; fold change (FC) [33]: <=2.5; fold change (FC) [35]: 1.401; fold change (FC) [37]: >4
